Columns and labels:
[1] = biological target: T1, CFTR (Homo sapiens, UniProt P13569, DEL508-508); assay: TECC24 AUC fold over DMSO @10 μM, CFTR-mediated transepithelial chloride transport in CF-HBE cells; assay type: cell-based; settings: test agent AUC divided by DMSO vehicle AUC, primary CF-HBE cells, ΔF508 homozygous donor, 48 hours incubation
T1 construct: Primary human bronchial epithelial cells from a ΔF508 homozygous CF donor; host or cells: primary human bronchial epithelial cells (CF-HBE), ΔF508 homozygous donor
How it was run: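 ΔF508-homozygous primary bronchial epithelial cells incubated 48 h at 36.5° C with compound (10 μM) in IL-13-containing medium, then TECC24 current-clamp recording in pH 7.4 Hepes saline with benzamil 10 μM, forskolin 10 μM, then CFTR inhibitor-172 20 μM. Equivalent Cl− current AUC between forskolin and inhibitor, expressed as fold over DMSO.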

[2] = biological target: T2, NBD1 (Homo sapiens, UniProt P13569); assay: Aggregation analysis using differential static light scattering (DSLS), thermal stability of NBD1 (ΔTagg); assay type: binding; settings: ΔTagg versus DMSO control, NBD1 0.2 mg/ml
T2 construct: Purified recombinant NBD1 was produced using previously described methods; made in house
How it was run: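 Thermal aggregation of purified NBD1 was followed by static light scattering during a 1° C./min ramp to 70° C. Protein was at 0.2 mg/ml with 2 mM ATP at pH7.6. Each compound's Tagg was referenced to DMSO controls.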

T1 sequence (P13569 with tags, fused parts or gaps DEL508-508): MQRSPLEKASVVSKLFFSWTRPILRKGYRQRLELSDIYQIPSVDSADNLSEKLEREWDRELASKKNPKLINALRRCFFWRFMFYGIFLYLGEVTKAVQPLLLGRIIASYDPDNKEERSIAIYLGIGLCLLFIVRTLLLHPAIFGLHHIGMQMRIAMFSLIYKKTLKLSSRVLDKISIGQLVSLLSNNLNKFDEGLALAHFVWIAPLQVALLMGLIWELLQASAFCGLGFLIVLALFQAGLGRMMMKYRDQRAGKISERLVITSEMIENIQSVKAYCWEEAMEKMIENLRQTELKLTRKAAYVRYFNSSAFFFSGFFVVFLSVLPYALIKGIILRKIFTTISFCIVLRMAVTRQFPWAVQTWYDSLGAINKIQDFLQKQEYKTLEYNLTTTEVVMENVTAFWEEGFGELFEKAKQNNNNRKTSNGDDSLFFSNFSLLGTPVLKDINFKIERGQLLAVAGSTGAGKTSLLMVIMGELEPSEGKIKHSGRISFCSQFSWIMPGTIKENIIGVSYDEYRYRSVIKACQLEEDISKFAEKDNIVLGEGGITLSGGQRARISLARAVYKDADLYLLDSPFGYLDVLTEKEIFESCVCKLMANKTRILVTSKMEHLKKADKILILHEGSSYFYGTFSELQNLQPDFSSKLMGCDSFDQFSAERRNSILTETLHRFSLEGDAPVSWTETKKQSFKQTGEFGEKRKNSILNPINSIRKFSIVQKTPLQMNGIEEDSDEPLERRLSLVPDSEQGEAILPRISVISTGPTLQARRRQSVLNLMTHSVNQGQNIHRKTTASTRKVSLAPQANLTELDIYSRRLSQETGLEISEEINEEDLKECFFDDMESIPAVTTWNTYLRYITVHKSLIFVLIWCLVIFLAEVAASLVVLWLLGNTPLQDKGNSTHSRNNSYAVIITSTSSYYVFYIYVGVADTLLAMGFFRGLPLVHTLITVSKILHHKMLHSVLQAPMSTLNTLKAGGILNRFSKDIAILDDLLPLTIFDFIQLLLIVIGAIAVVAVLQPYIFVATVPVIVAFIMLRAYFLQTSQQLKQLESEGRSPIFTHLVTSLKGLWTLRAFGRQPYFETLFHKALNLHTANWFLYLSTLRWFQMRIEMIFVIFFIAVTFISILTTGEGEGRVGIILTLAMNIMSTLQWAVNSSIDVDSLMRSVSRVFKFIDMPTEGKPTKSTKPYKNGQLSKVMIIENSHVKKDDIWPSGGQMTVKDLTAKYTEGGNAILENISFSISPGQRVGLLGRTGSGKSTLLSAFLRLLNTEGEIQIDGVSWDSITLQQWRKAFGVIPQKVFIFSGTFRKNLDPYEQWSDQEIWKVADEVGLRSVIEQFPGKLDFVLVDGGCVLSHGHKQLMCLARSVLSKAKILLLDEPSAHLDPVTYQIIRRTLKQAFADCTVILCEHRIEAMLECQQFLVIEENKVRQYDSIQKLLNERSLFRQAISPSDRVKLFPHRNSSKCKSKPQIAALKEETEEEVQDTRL
T2 sequence (P13569 423-646 limits assumed): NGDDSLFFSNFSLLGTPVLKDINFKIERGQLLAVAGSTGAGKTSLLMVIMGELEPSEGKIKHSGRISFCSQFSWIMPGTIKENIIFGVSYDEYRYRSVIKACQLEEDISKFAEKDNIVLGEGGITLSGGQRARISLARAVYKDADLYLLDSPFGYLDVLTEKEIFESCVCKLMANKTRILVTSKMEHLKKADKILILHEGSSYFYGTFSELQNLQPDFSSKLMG

Row | SMILES | TECC (AUC, 10 μM) [1] | DSLS 3D (100 μM ΔT) [2]
1 | Cn1nc2nc1-c1cc(ccn1)Oc1c(F)c(F)c3[nH]ccc3c1CCS(=O)(=O)CC(C)(C)CCC[C@]2(C)c1cccc(CCO)c1 [Compound 258, 2-[3-[(6R)-21,22-Difluoro-3,6,10,10-tetramethyl-12,12-dioxo-24-oxa-12λ6-thia-3,4,19,28,30-pentazapentacyclo[23.3.1.12,5.015,23.016,20]triaconta-1(29),2(30),4,15,17,20,22,25,27-nonaen-6-yl]phenyl]ethanol] | C (a value between 20 and 80 is marked “C”) | C (a value greater than 10 °C and less than or equal to 25 °C is marked “C”)
2 | C[C@@H](Cc1cccc([C@@]2(C)CCCC(C)(C)CS(=O)(=O)CCc3c(c(F)c(F)c4[nH]ccc34)Oc3ccnc(c3)-c3nc2nn3C)c1)C(=O)O [Compound 262, (2S)-3-[3-[(6R)-21,22-Difluoro-3,6,10,10-tetramethyl-12,12-dioxo-24-oxa-12λ6-thia-3,4,19,28,30-pentazapentacyclo[23.3.1.12,5.015,23.016,20]triaconta-1(29),2(30),4,15,17,20,22,25,27-nonaen-6-yl]phenyl]-2-methyl-propanoic Acid] | C (a value between 20 and 80 is marked “C”) | C (a value greater than 10 °C and less than or equal to 25 °C is marked “C”)
3 | C[C@@H](O)Cc1cccc([C@@]2(C)CCCC(C)(C)CS(=O)(=O)CCc3c(c(F)cc4[nH]ccc34)Sc3ccc(F)c(c3)-c3nc2nn3C)c1 [Compound 263, (2R)-1-[3-[(6R)-22,28-difluoro-3,6,10,10-tetramethyl-12,12-dioxo-12λ6,24-dithia-3,4,19,30-tetrazapentacyclo[23.3.1.12,5.015,23.016,20]triaconta-1(29),2(30),4,15,17,20,22,25,27-nonaen-6-yl]phenyl]propan-2-ol] | C (a value between 20 and 80 is marked “C”) | B (a value above 5 °C and less than or equal to 10 °C is marked “B”)
4 | COC(=O)[C@H](C)Cc1cccc([C@@]2(C)CCCC(C)(C)CS(=O)(=O)CCc3c(c(F)cc4[nH]ccc34)Oc3cnnc(c3)-c3nc2nn3C)c1 [Compound 265, Methyl (2R)-3-[3-[(6R)-22-fluoro-3,6,10,10-tetramethyl-12,12-dioxo-24-oxa-12λ6-thia-3,4,19,27,28,30-hexazapentacyclo[23.3.1.12,5.015,23.016,20]triaconta-1(29),2(30),4,15,17,20,22,25,27-nonaen-6-yl]phenyl]-2-methyl-propanoate] | C (a value between 20 and 80 is marked “C”) | B (a value above 5 °C and less than or equal to 10 °C is marked “B”)
5 | C[C@@H](Cc1cccc([C@@]2(C)CCCC(C)(C)CS(=O)(=O)CCc3c(c(F)c(F)c4[nH]ccc34)[S+]([O-])c3ccnc(c3)-c3nc2nn3C)c1)C(=O)O (stereo partly drawn) [Compound 267, (2S)-3-[3-[(6R)-21,22-Difluoro-3,6,10,10-tetramethyl-12,12,24-trioxo-12λ6,24λ4-dithia-3,4,19,28,30-pentazapentacyclo[23.3.1.12,5.015,23.016,20]triaconta-1(29),2(30),4,15,17,20,22,25,27-nonaen-6-yl]phenyl]-2-methyl-propanoic Acid] | C (a value between 20 and 80 is marked “C”) | C (a value greater than 10 °C and less than or equal to 25 °C is marked “C”)
6 | C[C@@H](Cc1cccc([C@@]2(C)CCCC(C)(C)CS(=O)(=O)CCc3c(c(F)c(F)c4[nH]ccc34)Sc3ccnc(c3)-c3nc2nn3C)c1)C(=O)O [Compound 268, (2S)-3-[3-[(6R)-21,22-Difluoro-3,6,10,10-tetramethyl-12,12-dioxo-12λ6,24-dithia-3,4,19,28,30-pentazapentacyclo[23.3.1.12,5.015,23.016,20]triaconta-1(29),2(30),4,15,17,20,22,25,27-nonaen-6-yl]phenyl]-2-methyl-propanoic Acid] | B (a value between 12-20 is marked “B”) | C (a value greater than 10 °C and less than or equal to 25 °C is marked “C”)

— US12649750B2, “Macrocyclic compounds, compositions, and methods of using thereof” (Sionna Therapeutics Inc., priority 2022, dated 2026)
